Laboratory results as given in patent US20100168049A1, “COMBINATION OF MONOSACCHARIDES AND ADENOSINE AND USE THEREOF” (L'OREAL, priority 2008, published 2010).

Tests used:
[1] = test system: keratinocytes (HaCat line); assay: Proliferation of keratinocytes (Cyquant, Nile red, XTT markers); format: cell-based
Protocol: The keratinocytes (HaCat line) are cultured under two conditions: whole defined culture medium (standard condition) and culture medium deficient in growth factors. This deficient medium gives rise to a controlled delay in cell proliferation. Under these conditions, it is then possible to measure the effects of compounds capable of compensating for the deficiency in growth factors of the culture medium and thus of relaunching the cell multiplication and/or of stimulating cell metabolism.
The keratinocyte proliferation is measured by means of three markers on the same cell population: the level of DNA, which is proportional to the number of cells (Cyquant probe), the level of constituent polar lipids of cell membranes (Nile red probe) and the mitochondrial respiration, which reflects the general cell metabolism (XTT probe).

[2] = test system: dermal fibroblasts of the reconstructed skin; assay: Proliferation of fibroblasts in whole reconstructed skin (propidium iodide nuclei count); format: cell-based, human; settings: 5 mM; within 48 hours of treatment
Excerpt: Rhamnose was studied on a model of whole reconstructed skin in order to measure its anti-ageing efficacy on the dermal compartment.
Briefly, the model of reconstructed skin used is that described by Bell et al. (Bell E. et al., The reconstitution of living skin, J. Invest. Dermatol., 1983, July; 81): it includes a dermal equivalent on which is reconstructed a multistratified epidermis; the dermal equivalent is manufactured from acid-soluble collagen, culture medium containing serum and normal adult human fibroblasts. After 5 days of shrinkage, this equivalent is inoculated with keratinocytes and then cultured for 6 days in immersion and for 7 days in emersion in order to obtain a multistratified and differentiated epidermis having a horny layer.
The reconstructed skin is treated with 5 mM rhamnose for 2 days and 5 days in the culture medium; after the treatment, the reconstructed skins are included in Tissue Tek in order to produce frozen sections 7 μm thick with a cryostat. […] Three frozen sections are prepared at random on each reconstructed skin; on each section, two microscopic fields (25× objective lens) are analysed by fluorescence microscopy and photographed. The dermal fibroblasts are thus counted for each reconstructed skin on six images in total representing the six microscopic fields considered. […]

type I procollagen = assay: Synthesis of procollagen 1 in reconstructed skin (indirect immunofluorescence); format: cell-based, human; settings: for procollagen 1 synthesis: reconstructed skin
Protocol: Conventional detection via indirect immunofluorescence of type I procollagen in the dermis of the reconstructed skin was also performed on other series of frozen sections (anti-procoll 1 antibody (MAB 1912 Millipore)+FTIC-coupled conjugate (112-095-068 Jackson Immunoresearch)). In order to obtain bearings within the cutaneous architecture during the microscopic examination of the sections, the cell nuclei of the keratinocytes and fibroblasts are localized by staining them with propidium iodide, as described above. Three frozen sections are prepared at random on each reconstructed skin and on each section, and two microscopic fields (25× objective lens) are analysed by fluorescence microscopy and photographed. The levels of fluorescence proportional to the amount of type I procollagen are compared between the control skin and the skin treated with rhamnose.

C[C@H](O)[C@H](O)[C@@H](O)[C@@H](O)C=O [rhamnose, L-rhamnose]
keratinocyte proliferation ([1]; keratinocytes cultured in medium depleted in growth factors): activate keratinocyte proliferation
number of cells compared with an untreated control ([1]; medium depleted in growth factor): higher number of cells
growth of the dermal fibroblasts [2]: stimulation of growth
green fluorescence (proportional to the amount of type I procollagen) vs control skin (type I procollagen; 1 mM, 120 hours): marked increase
synthesis of type I procollagen by the fibroblasts (type I procollagen; 1 mM, 120 hours): greatly stimulated
procollagen 1 synthesis (type I procollagen; 1 mM): stimulation of procollagen 1 synthesis
procollagen 1 synthesis (type I procollagen; 5 mM): stimulation of procollagen 1 synthesis
